# Results from patent publication US10285939B2, “Means and methods for ocular drug delivery” (Eberhard Karls Universität Tübingen Medizinische Fakultät, priority 2013, dated 2019).
# [C12U] = 2'-deoxyuridine carrying a dodecyne (lipid) modification
# Experiments:
# [1] = In-vitro adhesion to porcine eye; settings: NPs 20 μM, 15 minutes incubation, thoroughly washed in PBS
# Procedure: In order to further gauge the adherence of different nanoparticles (NPs) to the eye surface, porcine eyes were obtained from the local slaughterhouse and exposed to the different NPs. The NPs were prepared as described in example 1, section 1.2, at a concentration of 20 μM. The porcine eye was transferred to a 6-well plate and 2 rings of different diameter were placed on top of the cornea to prevent spillage of the NP solution. Subsequently, 50 μl of NP solution was put on top of the cornea and incubated for 15 minutes. Afterwards, the rings were removed using tweezers and the eyes were thoroughly washed in PBS (PAA, Germany). The eye was divided into two along the visual axis. Of the two halves one was stored in formaldehyde, whereas the other was frozen in Tissue Tek, cut on a cryostat, stained with DAPI and photographed as described in example 1. To determine the binding capabilities of the NPs, they were exposed to porcine eyes obtained from the local slaughterhouse. For comparison the NPs from example 1 were included in the experiments. After 15 minutes of incubation with the NPs, the porcine eye was thoroughly washed in PBS buffer and frozen in tissue tek. The adhesion to the cornea was evaluated by fluorescence microscopy (See FIG. 8).
# [2] = tested on: corneal epithelium of living rats; assay: Adhesion of fluorescently labelled DNA amphiphile NP eye drops to the cornea of living rats; type: in vivo, rat; settings: for Number of NP positive eyes out of total number eyes: 20 μM, conscious rats; for adhesion to the cornea (fluorescence images of cryo sections): in-vivo rat eye
# Procedure: Adult Lister Hooded Rats were obtained from Harlan Winkelmann, Germany. For the eye drop applications the conscious rats were very shortly fixated and a drop was administered to the eye using a single drop device as in medical applications. Blinking of the eyes was not hindered during drop application or afterwards. After the designated incubation time-point the rat were sacrificed with carbon dioxide inhalation.
# After the predetermined time point the animal was sacrificed and the eyes were enucleated and frozen in Tissue-Tek O.C.T. (Sakura Finetek, Germany) in liquid nitrogen. Frozen sections were longitudinally cut (12 μm) on a cryostat (Leica CM 1900, Germany), thaw-mounted onto glass slides (Superfrost plus, R. Langenbrinck Labor- and Medizintechnik, Germany) and stored at −30° C. until further use. Further processing was performed using standard procedures. Briefly, for visualisation sections were fixed with methanol and to stain nuclei, sections were further incubated in a solution containing 0.2 μg/ml 4′,6-diamidino-2-phenylindol (DAPI) for 1 min. Stained sections were embedded in FluorSave (Calbiochem, Germany) and imaged using a fluorescent microscope (Axioplan2 Imaging®, Zeiss, Germany with the Openlab software, Improvision, Germany).^33 Animals were treated according to the Principles of laboratory animal care (NIH publication No. 85-23, revised 1985), the OPRR Public Health Service Policy on the Human Care and Use of Laboratory Animals (revised 1986) and the German animal protection law (Research permission AK3/11 to S.S.)
# The eye drops containing the different fluorescently labelled DNA amphiphiles at a concentration of 20 μM were administered to conscious rats using a single drop of 30 μL and 30 min, 2 or 24 h after application the animals were sacrificed. Cryo sections of the treated eyes were prepared and imaged using fluorescence microscopy. As controls, single stranded (ss) and double stranded (ds) DNA lacking the lipid-modified nucleotide were administered as eye drops in the same fashion. Selection of the best carrier was performed by comparing the number of DNA amphiphile stained eyes to the total number of eyes to which eye drops were given and, in the case of an equal amount of positives, by visual comparison of the cryo sections (see Table 3).
# After selection of U4T-12 as the best carrier, the adherence time on the cornea was evaluated (see FIG. 3). The NPs of U4T-12 are already observed 5 min after application of the eye drops, thus showing a fast adherence to the cornea. Then the NPs are present for a period of at least four hours because distinct green fluorescence of the carrier was clearly visible. […] After these successful proof-of-concept experiments we applied U4T-12 aptamer-functionalized carriers loaded with neomycinB or kanamycinB because these two antibiotics are currently used for treatment of ophthalmic indications. For localization of the drug loaded carrier the aptamer was functionalized with a red fluorescent dye at the 5′ end. The eye drops were administered as described earlier and the adherence to the cornea was studied 5, 15 and 30 minutes after application (see FIG. 4).
# [3] = 30 min after a single 30 μL eye drop
# [4] = 2 hours after a single 30 μL eye drop
# [5] = 24 hours after a single 30 μL eye drop
# [6] = rat, eye drops, green fluorescence of the carrier
substance,measurement,setting,value
"U2M-12: amphiphile with sequence TCCUUGGCGCAG, lipid modified nucleotides situated inside the chain (lipid-modified nucleotides inside the chain, which positions not given here, further chemistry not given here)",adherence to the porcine cornea (fluorescence microscopy),[1],hardly any adherence
"U2T-12: lipid modified oligonucleotide UUTGGCGGATTC (5′→3′), U = dodecyne modified deoxyuridine; forms micellar NPs (DNA, [C12U] at 1, 2, backbone and methylation of C not given here; forms micellar nanoparticles)",Number of NP positive eyes out of total number eyes,[2]; [3],2/4
same,Number of NP positive eyes out of total number eyes,[2]; [4],0/4
same,Number of NP positive eyes out of total number eyes,[2]; [5],0/4
same,adhesion to the cornea (fluorescence images of cryo sections),[2]; eye drops,adhere significantly less
"U4T-12: lipid modified oligonucleotide UUUUGCGGATTC (5′→3′), U = dodecyne modified deoxyuridine; forms micellar NPs (DNA, [C12U] at 1, 2, 3, 4, backbone and methylation of C not given here; forms micellar nanoparticles)",Number of NP positive eyes out of total number eyes,[2]; [3],6/6
same,Number of NP positive eyes out of total number eyes,[2]; [4],4/6
same,Number of NP positive eyes out of total number eyes,[2]; [5],0/4
same,adhesion to the cornea (fluorescence images of cryo sections),[2]; eye drops,best attachment
same,adherence time on the cornea (period NPs are present),[2]; [6],at least four
same,time after application of the eye drops at which NPs are already observed on the cornea,[2]; [6],≤ 5 min
same,adherence to the porcine cornea (fluorescence microscopy),[1],good adherence
"U4T-18: lipid modified oligonucleotide UUUUGCGGATTCGTCTGC (5′→3′), U = dodecyne modified deoxyuridine (DNA, [C12U] at 1, 2, 3, 4, backbone and methylation of C not given here)",Number of NP positive eyes out of total number eyes,[2]; [3],4/5
same,Number of NP positive eyes out of total number eyes,[2]; [4],0/4
same,Number of NP positive eyes out of total number eyes,[2]; [5],0/4
"U6T-12: lipid modified oligonucleotide UUUUUUGGATTC (5′→3′), U = dodecyne modified deoxyuridine (DNA, [C12U] at 1, 2, 3, 4, 5, 6, backbone and methylation of C not given here)",Number of NP positive eyes out of total number eyes,[2]; [3],3/3
same,Number of NP positive eyes out of total number eyes,[2]; [4],1/4
same,Number of NP positive eyes out of total number eyes,[2]; [5],0/1
same,adhesion to the cornea (fluorescence images of cryo sections),[2]; eye drops,adhere significantly less
"U6T-20: lipid modified oligonucleotide UUUUUUGCGGATTCGTCTGC (5′→3′), U = dodecyne modified deoxyuridine (DNA, [C12U] at 1, 2, 3, 4, 5, 6, backbone and methylation of C not given here)",Number of NP positive eyes out of total number eyes,[2]; [3],2/2
same,Number of NP positive eyes out of total number eyes,[2]; [4],1/3
same,Number of NP positive eyes out of total number eyes,[2]; [5],0/3
